# System: not listed separately
# Test: Salt screening of compound I with several acids (aspect of the salt)
# Format: physicochemical
# Details: free base and acid in hot ethanol, cooled, solvent evaporated
# Description: To select the most suitable salt of compound I and minimize the undesirable hygroscopic properties of the hydrochloride, several acids were tested. The free base of compound I was dissolved in hot ethanol, and then acid solution in hot ethanol was added. The mixture was then stirred and heated for 30 min. After cooling to room temperature, the solvent was removed by evaporation. […]
row,Molecule,Aspect of the salt
1,O=C(O)C(O)C(O)C(=O)O.O=C(OC1CN2CCC1CC2)N(Cc1cc(F)c(F)c(F)c1)c1cccc(F)c1 (racemic),Adding MTBE precipitated a white solid
2,O=C(O)CC(O)C(=O)O.O=C(OC1CN2CCC1CC2)N(Cc1cc(F)c(F)c(F)c1)c1cccc(F)c1.O=C(OC1CN2CCC1CC2)N(Cc1cc(F)c(F)c(F)c1)c1cccc(F)c1 [D-Malic (0.5 eq)],Hygroscopic red foam
3,O=C(O)CC(O)C(=O)O.O=C(OC1CN2CCC1CC2)N(Cc1cc(F)c(F)c(F)c1)c1cccc(F)c1 (racemic) [DL-Malic],Hygroscopic red foam
4,O=C(O)C=CC(=O)O.O=C(OC1CN2CCC1CC2)N(Cc1cc(F)c(F)c(F)c1)c1cccc(F)c1.O=C(OC1CN2CCC1CC2)N(Cc1cc(F)c(F)c(F)c1)c1cccc(F)c1 (stereo not shown) [Fumaric (0.5 eq)],White foam
5,O=C(O)C(O)C(O)C(=O)O.O=C(OC1CN2CCC1CC2)N(Cc1cc(F)c(F)c(F)c1)c1cccc(F)c1.O=C(OC1CN2CCC1CC2)N(Cc1cc(F)c(F)c(F)c1)c1cccc(F)c1 [D-Tartaric (0.5 eq)],White solid crystal precipitated in EtOH.
6,CC1(C)C2CCC1(CS(=O)(=O)O)C(=O)C2.O=C(OC1CN2CCC1CC2)N(Cc1cc(F)c(F)c(F)c1)c1cccc(F)c1 (racemic) [(RS)-10-Camphorsulfonic],Hygroscopic pink foam
7,O=C(O)CC(O)C(=O)O.O=C(OC1CN2CCC1CC2)N(Cc1cc(F)c(F)c(F)c1)c1cccc(F)c1 [D-Malic],Hygroscopic red foam
8,Propionic,Hygroscopic white foam
9,L-Tartaric,White foam
10,O=C(O)C(O)c1ccccc1.O=C(OC1CN2CCC1CC2)N(Cc1cc(F)c(F)c(F)c1)c1cccc(F)c1 (stereo not shown) [Mandelic],White foam
11,O=C(OC1CN2CCC1CC2)N(Cc1cc(F)c(F)c(F)c1)c1cccc(F)c1.O=C1OC(C(O)CO)C(O)=C1O (stereo not drawn) [L(+)-Ascorbic],White foam
12,O=C(O)CC(=O)O [Malonic],Oil
13,O=C(O)CC(O)C(=O)O.O=C(OC1CN2CCC1CC2)N(Cc1cc(F)c(F)c(F)c1)c1cccc(F)c1 [L-Malic],Oil
14,Fumaric,White foam
15,O=C(O)C=CC(=O)O.O=C(OC1CN2CCC1CC2)N(Cc1cc(F)c(F)c(F)c1)c1cccc(F)c1 (stereo not shown) [Maleic],Oil
16,O=C(O)C(O)c1ccccc1.O=C(OC1CN2CCC1CC2)N(Cc1cc(F)c(F)c(F)c1)c1cccc(F)c1 [(S)-Mandelic],Oil
17,CS(=O)(=O)O.O=C(OC1CN2CCC1CC2)N(Cc1cc(F)c(F)c(F)c1)c1cccc(F)c1 (stereo not shown) [Methanesulphonic],Oil
18,CC1(C)C2CCC1(CS(=O)(=O)O)C(=O)C2.O=C(OC1CN2CCC1CC2)N(Cc1cc(F)c(F)c(F)c1)c1cccc(F)c1 [(S)-10-Camphorsulfonic],Oil
19,O=C(O)CCC(=O)O [Succinic],Hygroscopic white foam
20,O=C(OC1CN2CCC1CC2)N(Cc1cc(F)c(F)c(F)c1)c1cccc(F)c1.O=S(=O)(O)c1ccccc1 (stereo not shown) [Benzenesulphonic],Oil
21,Citric,Oil
22,O=C(O)C(O)C(O)C(=O)O.O=C(OC1CN2CCC1CC2)N(Cc1cc(F)c(F)c(F)c1)c1cccc(F)c1.O=C(OC1CN2CCC1CC2)N(Cc1cc(F)c(F)c(F)c1)c1cccc(F)c1 [L-Tartaric (0.5 eq)],White foam
23,O=C(O)CC(O)C(=O)O.O=C(OC1CN2CCC1CC2)N(Cc1cc(F)c(F)c(F)c1)c1cccc(F)c1.O=C(OC1CN2CCC1CC2)N(Cc1cc(F)c(F)c(F)c1)c1cccc(F)c1 [L-Malic (0.5 eq)],Oil
24,CC(O)C(=O)O.O=C(OC1CN2CCC1CC2)N(Cc1cc(F)c(F)c(F)c1)c1cccc(F)c1 (racemic) [DL-Lactic],Oil
25,O=C(O)C(=O)O.O=C(OC1CN2CCC1CC2)N(Cc1cc(F)c(F)c(F)c1)c1cccc(F)c1 (stereo not shown) [Oxalic],Hygroscopic white foam
26,O=C(O)CC(O)C(=O)O.O=C(OC1CN2CCC1CC2)N(Cc1cc(F)c(F)c(F)c1)c1cccc(F)c1.O=C(OC1CN2CCC1CC2)N(Cc1cc(F)c(F)c(F)c1)c1cccc(F)c1 (racemic) [DL-Malic (0.5 eq)],Hygroscopic red foam
27,CC=CC=CC(=O)O.O=C(OC1CN2CCC1CC2)N(Cc1cc(F)c(F)c(F)c1)c1cccc(F)c1 (stereo not shown) [Sorbic],Oil

# System: patients suffering from Overactive Bladder syndrome
# Test: Phase II clinical trial: pharmacodynamics in overactive bladder patients (urodynamic assessments, tolerability)
# Details: 4 mg o.d., 4 weeks
# Description: A pharmacodynamic study of tarafenacin tartrate in patients suffering from Overactive Bladder syndrome was performed to obtain first efficacy and tolerability data in this population.
# The study was randomised, double-blind, placebo and active-controlled. Patients received tarafenacin tartrate at the dose of 0.1 or 0.2 mg, tolterodine 4 mg or placebo o.d. during 4 weeks, just after a 2 week single-blind wash-out period in which all patients received placebo. Urodynamic assessments were performed at baseline and after 4 weeks administration.
# It was planned to screen approximately 100 patients and randomize 77 patients, to obtain outcome data on 63 patients. Patients who entered the study were randomized into the four treatment groups during the double blind treatment period.
# After a Screening visit and a 14 day washout single blind period (placebo run in), patients were randomized to one of the four treatment arms by a 2:2:2:1 randomization schedule. In a single blind period, only the patients were blinded. During the treatment period, each patient received tarafenacin tartrate 0.1 mg/tarafenacin tartrate 0.2 mg/tolterodine (ER) 4 mg/placebo. Identical capsules were used to maintain the study blind.
# The end of study procedures were performed at the Day 28 visit (End of Treatment [EOT]). A study follow up was conducted at Day 35 either telephonically or the patient was called to the clinic (End of Study [EOS]).
# The primary endpoint was the pharmacodynamic endpoints and they were assessed as the mean change from baseline to Day 28 in urodynamic, salivary flow, and accommodation near point pharmacodynamic assessments.
row,Molecule,incidence of treatment emergent adverse events
1,"Cc1ccc(O)c([C@H](CCN(C(C)C)C(C)C)c2ccccc2)c1 [tolterodine, reference compound]",36%

# Same assay, conditions: human, in vivo
Molecule,increase in infused volume,increase in volume at first desire to void,increase in volume at strong desire to void
"Cc1ccc(O)c([C@H](CCN(C(C)C)C(C)C)c2ccccc2)c1 [tolterodine, reference compound]",20 mL,33 mL,42 mL

# From patent US8871787B2, “Stable crystalline salt of (R)-3-fluorophenyl-3,4,5-trifluorobenzylcarbamic acid 1-azabicyclo [2.2.2]oct-3-yl ester” (Laboratorios Salvat, S.A., priority 2007, dated 2014)
